According to US11110088B2, “Imidazopyrazine inhibitors of Bruton's tyrosine kinase” (Acerta Pharma B.V., priority 2015, dated 2021):

Tests used:
Blk = Blk (Homo sapiens (Human), UniProt P51451); test: Blk Z-LYTE assay (Life Technologies); assay type: biochemical; details: Z-LYTE assay performed at Life Technologies
ErbB4 = ErbB4 (Homo sapiens (Human), UniProt Q15303); test: ErbB4 Z-LYTE assay (Life Technologies); assay type: biochemical; details: Z-LYTE assay performed at Life Technologies
[1] = tested on: CD69 in CD19+ B cells of anti-IgM stimulated PBMCs; test: Human peripheral blood mononuclear cell (PBMC) CD69 assay; assay type: cell-based; details: Homo sapiens, PBMC, 2 h compound, then anti-IgM 18 hours
Procedure: Example 44—Human Peripheral Blood Mononuclear Cell (PBMC) CD69 Assay
Whole blood was collected in heparin-coated Vacutainer tubes (BD Biosciences, San Jose, Calif.) and used for isolation of PBMCs using Ficoll-Hypaque (Pharmacia, Uppsala, Sweden). Isolated PBMCs were cryopreserved in 90% FCS/10% DMSO until later use.
Cells from cryogenic storage were thawed in a 37° C. water bath, diluted with RPMI/1% FCS, washed 2 times, and then plated at 1×10^5 cells per well in RPMI/10% FCS.
Serial dilutions log 10 from 10 mM to 316 nM of test compounds are made in 100% DMSO, followed by a 100-fold dilution into RPMI/1% FCS. For each well, 10 μL was then transferred to the deep well plate containing 90 μL of PBMC cells. Final compound concentration range in the assay ranged from 10 μM to 0.316 nM, with a final DMSO concentration of 0.1%. PBMCs are then incubated for 2 h at 37° C. in presence or absence of test compounds, prior to stimulation with goat F(ab′)2 anti-IgM (Southern Biotech, #2022-14, final concentration in assay 5 μg/mL) for 18 hours.
Following stimulation with anti-IgM, PBMCs were incubated on ice for 30 min with anti-CD69-FITC, anti-CD19-BV421 (BD Biosciences #555530 and #562440, respectively) and 7AAD (Life Technologies #A1310). Flow cytometry was performed and fluorescence values were obtained from the CD69-FITC channel in CD19+ gated life B cells. ECso values are determined by curve fitting of the experimental results using GraphPad Prism.

ITK = ITK (Homo sapiens (Human), UniProt Q08881); test: ITK enzyme activity, IMAP assay; assay type: biochemical; details: 60 min pre-incubation; 5 μM ATP
ITK, sequence (Q08881 whole entry): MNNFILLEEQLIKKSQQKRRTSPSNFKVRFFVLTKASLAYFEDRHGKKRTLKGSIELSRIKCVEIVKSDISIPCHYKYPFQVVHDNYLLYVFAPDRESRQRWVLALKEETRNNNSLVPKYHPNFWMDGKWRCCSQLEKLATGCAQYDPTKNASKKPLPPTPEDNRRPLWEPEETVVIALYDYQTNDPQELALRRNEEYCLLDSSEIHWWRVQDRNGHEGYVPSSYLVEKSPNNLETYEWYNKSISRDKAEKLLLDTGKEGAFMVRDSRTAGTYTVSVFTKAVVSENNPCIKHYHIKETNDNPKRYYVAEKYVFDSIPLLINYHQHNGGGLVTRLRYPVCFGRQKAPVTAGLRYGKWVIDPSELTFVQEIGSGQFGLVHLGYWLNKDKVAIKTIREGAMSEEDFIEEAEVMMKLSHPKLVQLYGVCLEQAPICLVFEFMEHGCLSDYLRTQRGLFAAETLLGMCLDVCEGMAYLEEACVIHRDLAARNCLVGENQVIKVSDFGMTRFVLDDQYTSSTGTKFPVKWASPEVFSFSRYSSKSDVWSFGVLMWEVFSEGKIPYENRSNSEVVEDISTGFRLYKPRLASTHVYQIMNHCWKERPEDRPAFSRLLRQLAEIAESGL
Procedure: ITK enzyme activity is measured using the IMAP (immobilized metal ion affinity-based fluorescence polarization) assay as outlined below.
ITK enzyme (Millipore #14-660M) is diluted to 0.2 U/mL in KR buffer (10 mM Tris-HCl, 10 mM MgCl2, 0.01% Tween-20, 0.1% NaN3, 1 mM DTT, 2 mM MnCl2, pH 7.5)
(§1) The dilutions in DMSO are then diluted 50-fold in KR-buffer.
(§2) Test compounds and ITK enzyme are pre-incubated 60 minutes at room temperature, before adding 5 μL/well of 200 nM Fluorescin labeled substrate peptide (Blk/Lyntide substrate #R8124, Molecular Devices) in KR-buffer. Final peptide substrate concentration in assay is 50 nM. […] IC50 values are determined by curve fitting of the experimental results using Activity Base.

Jak3 = Jak3 (Homo sapiens (Human), UniProt P52333); test: Jak3 Z-LYTE assay (Life Technologies); assay type: biochemical; details: Z-LYTE assay performed at Life Technologies
EGFR WT = EGFR WT (Homo sapiens (Human), UniProt P00533); test: EGFR enzyme activity, IMAP assay; assay type: biochemical; details: 60 min pre-incubation; 2 μM ATP
Procedure: EGFR enzyme activity is measured using the IMAP (immobilized metal ion affinity-based fluorescence polarization) assay as outlined below.
EGFR enzyme (Invitrogen catalog #PR7295B), is diluted to 2.5 μg/mL in KR buffer (10 mM Tris-HCl, 10 mM MgCl2, 0.01% Tween-20, 0.1% NaN3, 1 mM DTT, 2 mM MnCl2, pH 7.5).
Final peptide substrate concentration in assay is 50 nM. […] Following incubation for 60 min at room temperature in the dark the enzyme reaction is stopped by adding 40 μL/well IMAP Progressive Binding Solution (according to suppliers (Molecular Devices) protocol using 20% 1× buffer A and 80% 1× buffer B with 600× diluted beads). After 60 min incubation at room temperature in the dark the FP signal is read. […] Values are calculated as percentage of the difference in readout (ΔmPi) of the controls with and without ATP. IC50 values are determined by curve fitting of the experimental results using GraphPad Prism6.

Txk = Txk (Homo sapiens (Human), UniProt P42681); test: TXK enzyme activity, IMAP assay; assay type: biochemical; details: 60 min pre-incubation; 1 μM ATP
Txk, sequence (P42681 whole entry): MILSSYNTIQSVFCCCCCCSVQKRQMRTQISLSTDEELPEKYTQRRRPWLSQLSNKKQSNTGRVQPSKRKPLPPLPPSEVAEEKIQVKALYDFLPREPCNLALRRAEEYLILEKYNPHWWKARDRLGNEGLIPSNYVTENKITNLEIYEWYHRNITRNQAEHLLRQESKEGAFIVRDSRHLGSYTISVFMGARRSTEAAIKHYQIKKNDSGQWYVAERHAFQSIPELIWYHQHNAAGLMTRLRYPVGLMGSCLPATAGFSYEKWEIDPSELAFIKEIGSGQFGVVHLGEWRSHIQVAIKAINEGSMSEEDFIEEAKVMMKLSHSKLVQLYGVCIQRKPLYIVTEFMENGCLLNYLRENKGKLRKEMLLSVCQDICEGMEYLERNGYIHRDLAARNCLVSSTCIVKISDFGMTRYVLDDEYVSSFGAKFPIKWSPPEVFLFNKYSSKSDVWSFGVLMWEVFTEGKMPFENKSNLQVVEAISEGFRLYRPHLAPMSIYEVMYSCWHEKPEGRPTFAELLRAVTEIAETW
Procedure: TXK enzyme activity is measured using the IMAP (immobilized metal ion affinity-based fluorescence polarization) assay as outlined below.
TXK enzyme (Millipore #14-761), is diluted to 2.5 U/mL in KR buffer (10 mM Tris-HCl, 10 mM MgCl2, 0.01% Tween-20, 0.1% NaN3, 1 mM DTT, 2 mM MnCl2, pH 7.5).
(§3) Serial dilutions log 10 from 2 mM to 63.2 nM of test compounds are made in 100% DMSO. The dilutions in DMSO are then diluted 50-fold in KR-buffer. Final compound concentration range in the assay ranged from 10 μM to 0.316 nM.
The assay is performed as follows: 5 μL/well of test compound in KR buffer (final DMSO concentration in the assay is 1%) is mixed with 5 μL/well of 2.5 U/mL TXK enzyme (final concentration in the assay is 0.625 U/mL (4.4 nM)). Test compounds and TXK enzyme are pre-incubated 60 minutes at room temperature, before adding 5 μL/well of 200 nM Fluorescin labeled substrate peptide (Blk/Lyntide substrate #R7188, Molecular Devices) in KR-buffer. Final peptide substrate concentration in assay is 50 nM. […] Following incubation for 2 hours at room temperature the enzyme reaction is stopped by adding 40 μL/well IMAP Progressive Binding Solution (according to suppliers (Molecular Devices) protocol using 60% 1× buffer A and 40% 1× buffer B with 800× diluted beads (Progressive Binding System, Molecular Devices). After 60 min incubation at room temperature in the dark the FP signal is read. Fluorescence at 535 nm is measured using parallel and perpendicular filters to determine differences in rotation due to binding of the phosphorylated substrate peptide to the beads. Values are calculated as percentage of the difference in readout (ΔmPi) of the controls with and without ATP. IC50 values are determined by curve fitting of the experimental results using Activity Base.

Bmx = Bmx (Homo sapiens (Human), UniProt P51813); test: BMX enzyme activity, IMAP assay; assay type: biochemical; details: 60 min pre-incubation; 5 μM ATP
Bmx, sequence (P51813 whole entry): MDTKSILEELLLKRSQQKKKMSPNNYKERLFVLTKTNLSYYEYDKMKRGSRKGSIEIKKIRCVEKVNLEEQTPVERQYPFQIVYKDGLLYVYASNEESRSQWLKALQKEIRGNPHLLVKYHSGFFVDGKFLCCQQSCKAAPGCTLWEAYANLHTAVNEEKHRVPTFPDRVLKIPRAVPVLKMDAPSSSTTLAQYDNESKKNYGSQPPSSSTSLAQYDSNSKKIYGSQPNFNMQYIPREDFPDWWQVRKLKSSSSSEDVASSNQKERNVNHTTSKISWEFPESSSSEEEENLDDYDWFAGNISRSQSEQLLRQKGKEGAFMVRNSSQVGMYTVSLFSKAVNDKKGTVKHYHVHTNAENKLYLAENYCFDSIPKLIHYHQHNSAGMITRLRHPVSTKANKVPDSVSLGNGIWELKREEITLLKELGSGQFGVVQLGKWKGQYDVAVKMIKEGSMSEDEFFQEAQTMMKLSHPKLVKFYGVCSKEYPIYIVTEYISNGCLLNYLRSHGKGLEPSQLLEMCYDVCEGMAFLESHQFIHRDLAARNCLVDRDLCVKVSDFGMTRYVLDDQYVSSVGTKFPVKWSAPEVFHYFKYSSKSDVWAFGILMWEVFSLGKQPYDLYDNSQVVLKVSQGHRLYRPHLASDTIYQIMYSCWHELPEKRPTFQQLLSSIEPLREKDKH
Procedure: BMX enzyme activity is measured using the IMAP (immobilized metal ion affinity-based fluorescence polarization) assay as outlined below.
as §1
as §2, with “BMX” for “ITK”, “#R7188,” for “#R8124,”

ErbB2 = ErbB2 (Homo sapiens (Human), UniProt P04626); test: ErbB2 Z-LYTE assay (Life Technologies); assay type: biochemical; details: Z-LYTE assay performed at Life Technologies
ErbB2, sequence (P04626 23-1255): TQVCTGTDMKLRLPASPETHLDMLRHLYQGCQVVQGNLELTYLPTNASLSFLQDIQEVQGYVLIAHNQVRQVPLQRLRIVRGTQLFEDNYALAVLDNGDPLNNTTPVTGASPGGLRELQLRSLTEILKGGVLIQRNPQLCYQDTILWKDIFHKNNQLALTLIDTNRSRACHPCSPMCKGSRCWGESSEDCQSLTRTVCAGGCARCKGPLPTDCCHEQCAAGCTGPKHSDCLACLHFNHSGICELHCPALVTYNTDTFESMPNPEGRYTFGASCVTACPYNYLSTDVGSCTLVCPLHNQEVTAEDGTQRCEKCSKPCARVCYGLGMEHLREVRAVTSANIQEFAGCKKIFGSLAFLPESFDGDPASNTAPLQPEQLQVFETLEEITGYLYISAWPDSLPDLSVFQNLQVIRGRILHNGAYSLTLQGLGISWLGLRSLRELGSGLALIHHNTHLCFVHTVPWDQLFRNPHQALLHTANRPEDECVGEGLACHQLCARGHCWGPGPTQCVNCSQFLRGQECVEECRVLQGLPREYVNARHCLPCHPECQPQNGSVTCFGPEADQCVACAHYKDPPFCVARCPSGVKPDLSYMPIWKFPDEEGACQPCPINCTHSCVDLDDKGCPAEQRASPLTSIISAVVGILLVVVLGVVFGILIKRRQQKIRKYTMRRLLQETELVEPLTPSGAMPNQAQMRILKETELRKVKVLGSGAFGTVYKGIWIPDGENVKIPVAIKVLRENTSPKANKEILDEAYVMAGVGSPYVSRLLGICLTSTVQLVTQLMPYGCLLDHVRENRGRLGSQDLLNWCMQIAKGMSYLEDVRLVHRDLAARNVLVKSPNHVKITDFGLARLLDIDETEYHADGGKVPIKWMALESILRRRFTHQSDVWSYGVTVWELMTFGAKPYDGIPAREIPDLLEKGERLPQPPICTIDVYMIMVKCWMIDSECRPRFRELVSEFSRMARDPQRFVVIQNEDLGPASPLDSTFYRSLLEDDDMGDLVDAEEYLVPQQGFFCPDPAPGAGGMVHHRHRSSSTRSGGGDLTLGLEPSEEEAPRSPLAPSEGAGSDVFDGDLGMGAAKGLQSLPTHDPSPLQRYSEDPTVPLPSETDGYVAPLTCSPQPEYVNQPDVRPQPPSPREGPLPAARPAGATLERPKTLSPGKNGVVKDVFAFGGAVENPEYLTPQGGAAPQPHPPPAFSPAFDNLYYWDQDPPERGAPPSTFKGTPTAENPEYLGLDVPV

BTK = BTK (Homo sapiens (Human), UniProt Q06187); test: BTK enzyme activity, IMAP assay; assay type: biochemical; details: 60 min pre-incubation; 5 μM ATP
BTK, sequence (Q06187 whole entry): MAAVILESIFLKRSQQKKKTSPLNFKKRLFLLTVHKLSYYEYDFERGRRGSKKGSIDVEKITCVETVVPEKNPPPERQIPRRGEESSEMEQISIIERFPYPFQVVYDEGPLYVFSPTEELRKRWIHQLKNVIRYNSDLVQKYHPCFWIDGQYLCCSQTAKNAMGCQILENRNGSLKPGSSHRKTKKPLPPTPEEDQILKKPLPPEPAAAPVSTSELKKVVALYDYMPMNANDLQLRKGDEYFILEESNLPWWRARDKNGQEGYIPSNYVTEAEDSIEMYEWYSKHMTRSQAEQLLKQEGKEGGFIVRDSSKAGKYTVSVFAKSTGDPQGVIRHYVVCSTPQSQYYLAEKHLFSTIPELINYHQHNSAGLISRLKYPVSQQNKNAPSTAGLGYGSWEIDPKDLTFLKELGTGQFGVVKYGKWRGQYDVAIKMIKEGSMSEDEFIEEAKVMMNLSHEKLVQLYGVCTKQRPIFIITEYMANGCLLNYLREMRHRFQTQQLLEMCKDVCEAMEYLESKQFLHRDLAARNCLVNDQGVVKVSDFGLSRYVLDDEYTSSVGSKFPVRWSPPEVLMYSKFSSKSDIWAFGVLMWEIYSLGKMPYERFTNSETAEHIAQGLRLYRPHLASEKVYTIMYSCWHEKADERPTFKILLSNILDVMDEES
Procedure: BTK enzyme activity is measured using the IMAP (immobilized metal ion affinity-based fluorescence polarization) assay as outlined below.
BTK enzyme (His-BTK (Millipore catalog #14-552)), is diluted to 0.4 U/mL in KR buffer (10 mM Tris-HCl, 10 mM MgCl2, 0.01% Tween-20, 0.05% NaN3, 1 mM DTT, 2 mM MnCl2, pH 7.2).
as §3
The assay is performed as follows: 5 μL/well of test compound in KR buffer (final DMSO concentration in the assay is 1%) is mixed with 5 µl/well of 0.4 U/mL BTK enzyme (final concentration in the assay is 0.1 U/mL). Test compounds and BTK enzyme are pre-incubated 60 minutes at room temperature, before adding 5 μL/well of 200 nM Fluorescin labeled substrate peptide (Blk/Lyntide substrate, e.g. #R7188/#R7233, Molecular Devices) in KR-buffer. Final peptide substrate concentration in assay is 50 nM. […] Following incubation for 2 hours at room temperature the enzyme reaction is stopped by adding 40 μL/well IMAP Progressive Binding Solution (according to suppliers (Molecular Devices) protocol using 75% 1× buffer A and 25% 1× buffer B with 1:600 Progressive Binding Solution). After 60 min incubation at room temperature in the dark the FP signal is read. Fluorescence at 535 nm is measured using parallel and perpendicular filters to determine differences in rotation due to binding of the phosphorylated substrate peptide to the beads. Values are calculated as percentage of the difference in readout (ΔmPi) of the controls with and without ATP. IC50 values are determined by curve fitting of the experimental results using Activity Base.

Blk, sequence (P51451 whole entry): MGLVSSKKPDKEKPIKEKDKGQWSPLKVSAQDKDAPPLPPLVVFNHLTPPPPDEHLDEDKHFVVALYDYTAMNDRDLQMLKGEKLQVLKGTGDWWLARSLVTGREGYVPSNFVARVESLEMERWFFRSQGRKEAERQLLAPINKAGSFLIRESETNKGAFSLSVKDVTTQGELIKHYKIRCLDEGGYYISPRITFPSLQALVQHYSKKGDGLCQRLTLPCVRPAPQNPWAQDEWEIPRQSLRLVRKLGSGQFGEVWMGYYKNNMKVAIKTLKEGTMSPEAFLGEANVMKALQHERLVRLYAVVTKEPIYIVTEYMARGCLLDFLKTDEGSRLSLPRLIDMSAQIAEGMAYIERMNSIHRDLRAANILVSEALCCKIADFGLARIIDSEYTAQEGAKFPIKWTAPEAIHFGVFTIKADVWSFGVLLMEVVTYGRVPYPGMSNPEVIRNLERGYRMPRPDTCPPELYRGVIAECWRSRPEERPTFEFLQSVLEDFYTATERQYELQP

CC#CC(=O)N1CCC[C@H]1c1nc(-c2ccc(C(=O)Nc3cc(C(F)(F)F)ccn3)c(OC)c2)c2c(N)nccn12
IC50 (Blk): 0.489 µM
IC50 (ErbB4): 0.099 µM
EC50 [1]: 0.0037 µM
IC50 (ITK): > 1 µM
IC50 (Jak3): > 1 µM
IC50 (EGFR WT): > 1 µM
IC50 (Txk): 0.016 µM
IC50 (Bmx): 0.014 µM
IC50 (ErbB2): > 1 µM
IC50 (BTK): 0.0025 µM
